# Source: patent US20180110223A1, “PHENOXY- OR PYRIDIN-2-YLOXY-AMINOTRIAZINE COMPOUNDS AND THEIR USE AS HERBICIDES” (BASF SE, priority 2015, published 2018)
# What was measured:
# Format in all cases: in vivo
# [1] = test system: Abutilon theophrasti; assay: greenhouse post-emergence treatment, ABUTH; conditions: scale from 0 to 100
# Source text: (§1) The culture containers used were plastic flowerpots containing loamy sand with approximately 3.0% of humus as the substrate. The seeds of the test plants were sown separately for each species.
# (§2) For the post-emergence treatment, the test plants were first grown to a height of 3 to 15 cm, depending on the plant habit, and only then treated with the active ingredients which had been suspended or emulsified in water. For this purpose, the test plants were either sown directly and grown in the same containers, or they were first grown separately as seedlings and transplanted into the test containers a few days prior to treatment.
# (§3) Depending on the species, the plants were kept at 10-25° C. or 20-35° C., respectively.
# (§4) The test period extended over 2 to 4 weeks. During this time, the plants were tended, and their response to the individual treatments was evaluated.
# (§5) Evaluation was carried out using a scale from 0 to 100. 100 means no emergence of the plants, or complete destruction of at least the aerial moieties, and 0 means no damage, or normal course of growth.
# (§6) The plants used in the greenhouse experiments were of the following species: […]
# [2] = test system: Echinocloa crus-galli; assay: greenhouse post-emergence treatment, ECHCG; conditions: scale from 0 to 100
# Source text: as §1, §2, §3, §4, §5, §6
# [3] = test system: Setaria faberi; assay: greenhouse post-emergence treatment, SETFA; conditions: scale from 0 to 100
# Source text: as §1, §2, §3, §4, §5, §6
# [4] = test system: Amaranthus retroflexus; assay: greenhouse post-emergence treatment, AMARE; conditions: scale from 0 to 100
# Source text: as §1, §2, §3, §4, §5, §6
# [5] = test system: Viola arvensis; assay: greenhouse post-emergence treatment, VIOAR; conditions: 1000 g/ha, scale from 0 to 100
# Source text: as §1, §2, §3, §4, §5, §6
# [6] = test system: Alopecurus agrestis; assay: greenhouse post-emergence treatment, ALOMY; conditions: 500 g/ha, scale from 0 to 100
# Source text: as §1, §2, §3, §4, §5, §6
# [7] = test system: Setaria faberi; assay: greenhouse pre-emergence treatment, SETFA; conditions: scale from 0 to 100
# Source text: as §1
# (§7) For the pre-emergence treatment, the active ingredients, which had been suspended or emulsified in water, were applied directly after sowing by means of finely distributing nozzles. The containers were irrigated gently to promote germination and growth and subsequently covered with transparent plastic hoods until the plants had rooted. This cover caused uniform germination of the test plants, unless this had been impaired by the active ingredients.
# as §3, §4, §5, §6
# [8] = test system: Amaranthus retroflexus; assay: greenhouse pre-emergence treatment, AMARE; conditions: scale from 0 to 100
# Source text: as §1, §7, §3, §4, §5, §6
# [9] = test system: Echinocloa crus-galli; assay: greenhouse pre-emergence treatment, ECHCG; conditions: scale from 0 to 100
# Source text: as §1, §7, §3, §4, §5, §6
# [10] = test system: Abutilon theophrasti; assay: greenhouse pre-emergence treatment, ABUTH; conditions: 1000 g/ha, scale from 0 to 100
# Source text: as §1, §7, §3, §4, §5, §6
# [11] = test system: Polygonum convolvulus; assay: greenhouse post-emergence treatment, POLCO; conditions: 125 g/ha, scale from 0 to 100
# Source text: as §1, §2, §3, §4, §5, §6
structure (smiles),measurement,setting,value
"CC(F)c1nc(N)nc(Oc2c(F)c(F)cc(F)c2F)n1 (stereo not drawn) [Example 1, 4-(1-fluoroethyl)-6-(2,3,5,6-tetrafluorophenoxy)-1,3,5-triazin-2-amine]",herbicidal activity against ABUTH,[1]; 3000 g/ha,good (a good herbicidal activity is given at values of at least 70)
same,herbicidal activity against ECHCG,[2]; 3000 g/ha,very good (a very good herbicidal activity is given at values of at least 85)
same,herbicidal activity against SETFA,[3]; 3000 g/ha,very good (a very good herbicidal activity is given at values of at least 85)
CC(C)(F)c1nc(N)nc(Oc2c(F)c(F)c(F)c(F)c2F)n1 [Example 2],herbicidal activity against ECHCG,[2]; 3000 g/ha,very good (a very good herbicidal activity is given at values of at least 85)
same,herbicidal activity against SETFA,[3]; 3000 g/ha,very good (a very good herbicidal activity is given at values of at least 85)
CC(C)(F)c1nc(N)nc(Oc2c(F)ccc(F)c2F)n1 [Example 5],herbicidal activity against AMARE,[4]; 1000 g/ha,very good (a very good herbicidal activity is given at values of at least 85)
CC(F)c1nc(N)nc(Oc2cccc(F)c2F)n1 (stereo not drawn) [Example 7],herbicidal activity against ECHCG,[2]; 1000 g/ha,very good (a very good herbicidal activity is given at values of at least 85)
same,herbicidal activity against SETFA,[3]; 1000 g/ha,very good (a very good herbicidal activity is given at values of at least 85)
CC(F)c1nc(N)nc(Oc2c(F)ccc(F)c2F)n1 (stereo not drawn) [Example 8],herbicidal activity against AMARE,[4]; 1000 g/ha,very good (a very good herbicidal activity is given at values of at least 85)
same,herbicidal activity against SETFA,[3]; 1000 g/ha,very good (a very good herbicidal activity is given at values of at least 85)
same,herbicidal activity against VIOR,[5],very good (a very good herbicidal activity is given at values of at least 85)
CC(F)c1nc(N)nc(Oc2c(F)cc(F)c(F)c2F)n1 (stereo not drawn) [Example 9],herbicidal activity against AMARE,[4]; 1000 g/ha,very good (a very good herbicidal activity is given at values of at least 85)
same,herbicidal activity against SETFA,[3]; 1000 g/ha,very good (a very good herbicidal activity is given at values of at least 85)
same,herbicidal activity against VIOR,[5],very good (a very good herbicidal activity is given at values of at least 85)
Nc1nc(Oc2c(F)cc(F)c(F)c2F)nc(C(F)(F)F)n1 [Example 11],herbicidal activity against SETFA,[3]; 1000 g/ha,very good (a very good herbicidal activity is given at values of at least 85)
CCC(C)(F)c1nc(N)nc(Oc2c(F)cc(F)c(F)c2F)n1 (stereo not drawn) [Example 19],herbicidal activity against AMARE,[4]; 500 g/ha,very good (a very good herbicidal activity is given at values of at least 85)
CC(C)(C#N)c1nc(N)nc(Oc2c(F)c(F)c(F)c(F)c2F)n1 [Example 22],herbicidal activity against ALOMY,[6],good (a good herbicidal activity is given at values of at least 70)
CCC(F)c1nc(N)nc(Oc2c(F)cc(F)c(F)c2F)n1 (stereo not drawn) [Example 23],herbicidal activity against SETFA,[7]; 1000 g/ha,very good (a very good herbicidal activity is given at values of at least 85)
same,herbicidal activity against AMARE,[8]; 1000 g/ha,very good (a very good herbicidal activity is given at values of at least 85)
same,herbicidal activity against ECHCG,[9]; 1000 g/ha,very good (a very good herbicidal activity is given at values of at least 85)
CCC(F)c1nc(N)nc(Oc2c(F)c(F)c(F)c(F)c2F)n1 (stereo not drawn) [Example 24],herbicidal activity against SETFA,[7]; 1000 g/ha,very good (a very good herbicidal activity is given at values of at least 85)
same,herbicidal activity against ABUTH,[10],very good (a very good herbicidal activity is given at values of at least 85)
same,herbicidal activity against ECHCG,[9]; 1000 g/ha,very good (a very good herbicidal activity is given at values of at least 85)
Nc1nc(Oc2c(F)cc(F)c(F)c2F)nc(-c2cccs2)n1 [Example 25],herbicidal activity against ECHCG,[2]; 500 g/ha,good (a good herbicidal activity is given at values of at least 70)
Nc1nc(Oc2c(F)cc(F)c(F)c2F)nc(-c2ccc(Cl)s2)n1 [Example 27],herbicidal activity against AMARE,[4]; 500 g/ha,herbicidal activity
Cc1ccc(-c2nc(N)nc(Oc3c(F)cc(F)c(F)c3F)n2)o1 [Example 32],herbicidal activity against ABUTH,[1]; 1000 g/ha,very herbicidal activity
Nc1nc(Oc2c(F)cc(F)c(F)c2F)nc(C2CCCO2)n1 (stereo not drawn) [Example 33],herbicidal activity against POLCO,[11],very good (a very good herbicidal activity is given at values of at least 85)
Nc1nc(Oc2c(F)cc(F)c(F)c2F)nc([C@H]2CCCO2)n1 [Example 34],herbicidal activity against SETFA,[7]; 500 g/ha,good (a good herbicidal activity is given at values of at least 70)
same,herbicidal activity against AMARE,[8]; 500 g/ha,good (a good herbicidal activity is given at values of at least 70)
Nc1nc(Oc2c(F)cc(F)c(F)c2F)nc([C@@H]2CCCO2)n1 [Example 35],herbicidal activity against AMARE,[4]; 500 g/ha,good (a good herbicidal activity is given at values of at least 70)
Cc1ncoc1-c1nc(N)nc(Oc2c(F)cc(F)c(F)c2F)n1 [Example 38],herbicidal activity against ECHCG,[2]; 1000 g/ha,good (a good herbicidal activity is given at values of at least 70)
CC(F)c1nc(N)nc(Oc2c(F)c(F)c(F)c(I)c2F)n1 (stereo not drawn) [Example 39],herbicidal activity against ECHCG,[2]; 500 g/ha,good (a good herbicidal activity is given at values of at least 70)
same,herbicidal activity against SETFA,[3]; 500 g/ha,very good (a very good herbicidal activity is given at values of at least 85)
CC(C)C(F)c1nc(N)nc(Oc2c(F)cc(F)c(F)c2F)n1 (stereo not drawn) [Example 42],herbicidal activity against SETFA,[7]; 500 g/ha,very good (a very good herbicidal activity is given at values of at least 85)
same,herbicidal activity against AMARE,[8]; 500 g/ha,good (a good herbicidal activity is given at values of at least 70)
same,herbicidal activity against ECHCG,[9]; 500 g/ha,good (a good herbicidal activity is given at values of at least 70)
